Earlier results as cited in patent US20130065959A1, “SANITIZING MEAT WITH PERACID AND 2-HYDROXY ORGANIC ACID COMPOSITIONS” (Fresh Express Incorporated, priority 2009, published 2013).

Details: cited from earlier work

SMILES | Oxidation Capacity [eV]
[O][Cl+][O-] [Chlorine Dioxide] | 1.57
OCl [Sodium hypochlorite (Chlorine bleach), Sodium hypochlorite] | 1.36
O=[O+][O-] [Ozone] | 2.07
